# Values of other authors in patent publication US10266741B2, “Apparatus and method for addition of ADH enzyme inhibitors to existing engine cooling systems” (priority 2016, dated 2019).
# Test system: humans
# Details: ingestion, Federal Register Vol. 63, No. 27, Feb. 10, 1998
smiles,measurement,value
"OCCO [EG, ethylene glycol]",known toxin to humans at relatively low levels (reported as low as),"1,570 mg/kg"
